From ChEMBL document CHEMBL1124754, “Hypoxia-selective antitumor agents. 4. Relationships between structure, physicochemical properties, and hypoxia-selective cytotoxicity for nitracrine analogues with varying side chains: the "iminoacridan hypothesis"” (J Med Chem, 1990)

Key:
[1] = Hypersensitivity factor, IC50 (AA8) air /IC50 (UV4) in N2; type: functional
[2] = Acridine pKa values were determined in aqueous solution at 25 degrees Centigrade by spectrophotometric method.; type: physicochemical
[3] = CT10 (air/N2) ratio of the product of the drug concentration to the exposure time needed to reduce cell survival to 10% of controls using AA8 cells at 10 E 6 /mL in the clonogenic assay; type: functional, Cricetulus griseus, CHO-AA8
[4] = Hypersensitivity factor, IC50 (AA8) air /IC50 (UV4) in air; type: functional
[5] = IC50 (air/N2) ratio of the drug to reduce cell numbers to 50 percent of controls using AA8 cells in the microassay; type: functional, Cricetulus griseus, CHO-AA8
[6] = Tested for the concentration of the drug to reduce cell numbers to 50 percent of controls against AA8 cells in the microassay; type: functional, cell-based, Cricetulus griseus; settings: cho-aa8
[7] = Tested for the product of the drug concentration to the exposure time needed to reduce cell survival to 10% of controls using AA8 cells at 10 E 6 /mL in the clonogenic assay; type: functional, Cricetulus griseus, CHO-AA8
[8] = CT10 (air/N2) ratio of the product of the drug concentration to the exposure time needed to reduce cell survival to 10% of controls using AA8 cells at 10 E 6 /mL in the clonogenic assay; range is 0.8-1.5; type: functional, Cricetulus griseus, CHO-AA8
[9] = CT10 (air/N2) ratio of the product of the drug concentration to the exposure time needed to reduce cell survival to 10% of controls using AA8 cells at 10 E 6 /mL in the clonogenic assay; range is 1-2; type: functional, Cricetulus griseus, CHO-AA8

Compound	pKa [2]	IC50 ratio [5]	IC50 [6]	HF [1]	CT10 ratio [3]	HF [4]	CT10 [7]	CT10 ratio [8]	CT10 ratio [9]
CN(C)CCNc1c2ccccc2nc2cccc([N+](=O)[O-])c12	4.9	7.4	47 nM	15	14	19	1.22 µM·h	–	–
O=[N+]([O-])c1cccc2nc3ccccc3c(NCCc3ccccc3)c12	7.4	1.3	122 nM	15	2.3	14	2.8 µM·h	–	–
CN(C)CCCNc1c2ccccc2nc2cccc([N+](=O)[O-])c12 [NITRACRINE]	6.2	3.5	26.3 nM	14.9	9.9	12.9	0.47 µM·h	–	–
O=C(O)CCCNc1c2ccccc2nc2cccc([N+](=O)[O-])c12	–	4.2	18000 nM	6.6	2.5	6.1	50 µM·h	–	–
O=[N+]([O-])c1cccc2nc3ccccc3c(NCc3ccccc3)c12	7.4	1.2	380 nM	17	1.9	12	9 µM·h	–	–
Nc1c2ccccc2nc2cccc([N+](=O)[O-])c12	7.3	1.02	3600 nM	5.8	–	4.5	3.9 µM·h	–	2
CCCNc1c2ccccc2nc2cccc([N+](=O)[O-])c12	7.2	1.42	32 nM	20	3.4	11	0.62 µM·h	–	–
CC(C)CCNc1c2ccccc2nc2cccc([N+](=O)[O-])c12	7.4	1.13	120 nM	16	2.4	12	3.2 µM·h	–	–
O=[N+]([O-])c1cccc2nc3ccccc3c(NCCCO)c12	7.55	1.45	27 nM	13	3	15	0.43 µM·h	–	–
CNCCCNc1c2ccccc2nc2cccc([N+](=O)[O-])c12	6.2	4.8	34 nM	11	5.9	14	0.38 µM·h	–	–

More lines, in order of falling IC50 [6], values ahead:

pKa [2]	IC50 ratio [5]	IC50 [6]	Compound	HF [1]	CT10 ratio [3]	HF [4]	CT10 [7]	CT10 ratio [8]	CT10 ratio [9]
6.9	2.6	26 nM	CN(C)CCCCNc1c2ccccc2nc2cccc([N+](=O)[O-])c12	29	11.9	20	0.46 µM·h	–	–
7.4	1.65	15.5 nM	CN(C)CCCCCNc1c2ccccc2nc2cccc([N+](=O)[O-])c12	–	7	–	0.32 µM·h	–	–
7.2	1.1	11.5 nM	O=[N+]([O-])c1cccc2nc3ccccc3c(NCCO)c12	18	3.2	15	0.13 µM·h	–	–
7.4	1.55	11.5 nM	CN(C)CCCCCCNc1c2ccccc2nc2cccc([N+](=O)[O-])c12	–	6.8	–	0.38 µM·h	–	–
7.2	1.3	3.8 nM	CNc1c2ccccc2nc2cccc([N+](=O)[O-])c12	11	–	11	0.01 µM·h	1.5	–
